Assay results from PMC12028158, “Synthesis and In Vitro Evaluation of the Anticancer Effect of Novel Phosphonium Vindoline Derivatives” (International Journal of Molecular Sciences, 2025).
Like-named read-outs stand apart in the source and are kept apart here.

Key:
Assay type in all cases: cell-based
[1] = system: CCRF-CEM; assay: NCI60 one-dose screen; conditions: Homo sapiens, read-out: Growth percent
[2] = system: HCC-2998; assay: NCI60 five-dose screen; conditions: Homo sapiens, HCC 2998
[3] = system: HT29; assay: NCI60 five-dose screen; conditions: Homo sapiens, HT-29
[4] = system: MDA-MB-435; assay: NCI60 one-dose screen; conditions: Homo sapiens, MDA-MB-435, read-out: Growth percent
[5] = system: SK-OV-3; assay: NCI60 one-dose screen; conditions: Homo sapiens, SK-OV-3, read-out: Growth percent
[6] = system: K-562; assay: NCI60 one-dose screen; conditions: Homo sapiens, K562, read-out: Growth percent
[7] = system: SK-MEL-2; assay: NCI60 one-dose screen; conditions: Homo sapiens, SK-MEL-2, read-out: Growth percent
[8] = system: PC-3; assay: NCI60 one-dose screen; conditions: Homo sapiens, PC-3, read-out: Growth percent
[9] = system: EKVX; assay: NCI60 one-dose screen; conditions: Homo sapiens, read-out: Growth percent
[10] = system: 60 human tumor cell lines (NCI60); assay: NCI60 five-dose screen, overall mean
[11] = system: HL-60(TB); assay: NCI60 one-dose screen; conditions: Homo sapiens, HL-60, read-out: Growth percent
[12] = system: NCI-H23; assay: NCI60 five-dose screen; conditions: Homo sapiens, NCI-H23
[13] = system: SF-539; assay: NCI60 five-dose screen; conditions: Homo sapiens, SF-539
[14] = system: RPMI-8226; assay: NCI60 five-dose screen; conditions: Homo sapiens, RPMI-8226
[15] = system: RXF 393; assay: NCI60 one-dose screen; conditions: Homo sapiens, RXF 393, read-out: Growth percent
[16] = system: Melanoma panel; assay: NCI60 five-dose screen, panel mean; conditions: Homo sapiens
[17] = system: HOP-92; assay: NCI60 five-dose screen; conditions: Homo sapiens, HOP-92
[18] = system: Prostate Cancer panel; assay: NCI60 five-dose screen, panel mean; conditions: Homo sapiens
[19] = system: OVCAR-3; assay: NCI60 one-dose screen; conditions: Homo sapiens, OVCAR-3, read-out: Growth percent
[20] = system: SF-295; assay: NCI60 five-dose screen; conditions: Homo sapiens, SF-295
[21] = system: MCF7; assay: NCI60 one-dose screen; conditions: Homo sapiens, MCF7, read-out: Growth percent
[22] = system: OVCAR-4; assay: NCI60 one-dose screen; conditions: Homo sapiens, OVCAR-4, read-out: Growth percent
[23] = system: MALME-3M; assay: NCI60 five-dose screen; conditions: Homo sapiens, Malme-3M
[24] = system: A549/ATCC; assay: NCI60 one-dose screen; conditions: Homo sapiens, A549, read-out: Growth percent
[25] = system: OVCAR-3; assay: NCI60 five-dose screen; conditions: Homo sapiens, OVCAR-3
[26] = system: SW-620; assay: NCI60 one-dose screen; conditions: Homo sapiens, SW-620, read-out: Growth percent
[27] = system: NCI-H522; assay: NCI60 five-dose screen; conditions: Homo sapiens, NCI-H522
[28] = system: PC-3; assay: NCI60 five-dose screen; conditions: Homo sapiens, PC-3
[29] = system: OVCAR-8; assay: NCI60 five-dose screen; conditions: Homo sapiens, OVCAR-8
[30] = system: HCC-2998; assay: NCI60 one-dose screen; conditions: Homo sapiens, HCC 2998, read-out: Growth percent
[31] = system: LOX IMVI; assay: NCI60 one-dose screen; conditions: Homo sapiens, read-out: Growth percent
[32] = system: SR; assay: NCI60 five-dose screen; conditions: Homo sapiens
[33] = system: SNB-19; assay: NCI60 one-dose screen; conditions: Homo sapiens, SNB-19, read-out: Growth percent
[34] = system: SK-OV-3; assay: NCI60 five-dose screen; conditions: Homo sapiens, SK-OV-3
[35] = 60 cell, read-out: Mean GI50, mean over all 60 cell lines

Row | SMILES | activity at 10 µM [1] | GI50 [2] | GI50 [3] | activity at 10 µM [4] | activity at 10 µM [5] | activity at 10 µM [6] | activity at 10 µM [7] | activity at 10 µM [8] | activity at 10 µM [9] | activity at 10 µM [11] | GI50 [12] | GI50 [13] | GI50 [14] | activity at 10 µM [15] | GI50 [17] | activity at 10 µM [19] | GI50 [20] | activity at 10 µM [21] | activity at 10 µM [22] | GI50 [23] | further results
1 | CC[C@]12C=CCN3CC[C@@]4(c5ccc(OC)cc5N(C)[C@H]4[C@@](O)(C(=O)OC)[C@@H]1OC(=O)CCC[P+](c1ccc(F)cc1)(c1ccc(F)cc1)c1ccc(F)cc1)[C@@H]32 [9c] | 20% | 9530 nM | 12500 nM | 6.69% | 54.7% | 21.6% | -46.9% | 16.7% | 58.1% | -22.9% | 15800 nM | 16800 nM | 2050 nM | -10.4% | 5440 nM | 21.1% | > 48500 nM | 7.7% | 48.6% | 6850 nM | GI50 [10, 35]: 17000 nM; GI50 ([16]; read-out: Mean GI50): 8130 nM; GI50 ([18]; read-out: Mean GI50): 18200 nM; activity at 10 µM [24]: 54.5%; GI50 [25]: 6470 nM; activity at 10 µM [26]: 45.3%; GI50 [27]: 3880 nM; GI50 [28]: 12600 nM; GI50 [29]: 18400 nM; activity at 10 µM [30]: 22.4%; activity at 10 µM [31]: 31.1%; GI50 [32]: 7450 nM; activity at 10 µM [33]: 13.8%; GI50 [34]: 15800 nM
2 | CC[C@]12C=CCN3CC[C@@]4(c5ccc(OC)cc5N(C)[C@H]4[C@@](O)(C(=O)OC)[C@@H]1OC(=O)CCCC[P+](c1ccc(C)cc1)(c1ccc(C)cc1)c1ccc(C)cc1)[C@@H]32 [10a] | -72.4% | 520 nM | 358 nM | -86.8% | -82.3% | 0.8% | -87.2% | -73.2% | -93.8% | -42.2% | 855 nM | 1220 nM | 283 nM | -87.6% | 490 nM | -77.1% | 1620 nM | -81.2% | -68.9% | 1170 nM | GI50 [10, 35]: < 3000 nM; GI50 ([10]; read-out: GI50 Mean, mean over all 60 human cancer cell lines): 1230 nM; GI50 ([16]; read-out: GI50 Mean): 920 nM; GI50 ([18]; read-out: GI50 Mean): 800 nM; activity at 10 µM [24]: -92.2%; GI50 [25]: 604 nM; activity at 10 µM [26]: -88.2%; GI50 [27]: 306 nM; GI50 [28]: 450 nM; GI50 [29]: 1130 nM; activity at 10 µM [30]: -85.8%; activity at 10 µM [31]: -94.5%; GI50 [32]: 360 nM; activity at 10 µM [33]: -96.5%; GI50 [34]: 1040 nM
3 | CCC12C=CCN3CCC4(c5ccc(OC)cc5N(C)C4C(O)(C(=O)OC)C1OC(=O)CCC[P+](c1ccc(C)cc1)(c1ccc(C)cc1)c1ccc(C)cc1)C32 (stereo not drawn) [9a] | -67% | 415 nM | 219 nM | -57.5% | -81% | -13.1% | -85.4% | -83.3% | -94.7% | -47.5% | 303 nM | 338 nM | 186 nM | -82.8% | 187 nM | -61.9% | 521 nM | -76.3% | -73.5% | 220 nM | GI50 ([16]; read-out: Mean GI50): 350 nM; GI50 ([18]; read-out: Mean GI50): 380 nM; activity at 10 µM [24]: -90.3%; GI50 [25]: 374 nM; activity at 10 µM [26]: -85.2%; GI50 [27]: 258 nM; GI50 [28]: 310 nM; GI50 [29]: 372 nM; activity at 10 µM [30]: -91.4%; activity at 10 µM [31]: -89.3%; GI50 [32]: 281 nM; activity at 10 µM [33]: -97.3%; GI50 [34]: 290 nM
